Structures can show the parent of a compound that is named as a salt. Where two headings read alike, the source gives them in different places.
Columns and labels:
[1] = Solubility of Omecamtiv mecarbil salts in water solution (aqueous buffer) at different pH; assay type: physicochemical; conditions: USP / Ph. Eur. descriptive terms, read-out: Category of solubility (Descriptive Term)
Protocol: The solubility of prepared salts was tested in water solution at different pH (1.2, 4.5 and 6.8) and compared to Omecamtiv mecarbil dihydrochloride monohydrate salt prepared according to a procedure disclosed in WO2006009726 application.
It can be concluded that solubility of all prepared salt is better that the solubility of dihydrochloride monohydrate salt.

[2] = Stability at 25° C. of the solid isolated from salt crystallisation; assay type: physicochemical; conditions: crystallised from 2-butanone
Protocol: The preparation of Omecamtiv mecarbil methane sulfonic acid salt was tested also in following solvent: methanol, ethanol, isopropanol, 1-butanol, acetone and tetrahydrofurane. Solid obtainable from these solvents was not stable and it melted at a temperature 25° C. […] The solid Form M can be therefore used for purification of Omecamtiv mecarbil. The salt can be transformed into Omecamtiv mecarbil by contacting with a base (for example sodium hydrogen carbonate or potassium hydrogen carbonate or sodium carbonate or potassium carbonate or sodium hydroxide or potassium hydroxide) in a suitable solvent (for example an alcohol or acetone).
250 mg of Omecamtiv mecarbil was dissolved in a solvent (in Table below) at a temperature (in Table below). 40 μl methane sulfonic acid (1 eq. w.r.t. Omecamtiv mecarbil) was added. The mixture was cooled to 25° C. and stirred for 16 hours. If no solid appeared, mixture was then stirred at −15° C. Solid mass was filtered off and dried. The ratio between Omecamtiv mecarbil and the salt was determined by NMR as 1:2 (i.e. dimethane sulfonate salt).

| Structure (SMILES) | solubility ([1]; aqueous buffer pH 4.5) | solubility ([1]; aqueous buffer pH 6.8) | solubility ([1]; simulated gastric fluid, aqueous buffer pH 1.2) | stability of the crystalline solid [2] |
| --- | --- | --- | --- | --- |
| COC(=O)N1CCN(Cc2cccc(NC(=O)Nc3ccc(C)nc3)c2F)CC1 [Omecamtiv mecarbil p-toluene sulfonic acid salt] | ≥ 1000 mg/mL | ≥ 1000 mg/mL | ≥ 1000 mg/mL |  |
| COC(=O)N1CCN(Cc2cccc(NC(=O)Nc3ccc(C)nc3)c2F)CC1 [Salt with methane sulfonic acid, Form M, Omecamtiv mecarbil methane sulfonic acid salt] |  |  |  | form M, stable at 25° C., |

From patent US20220348543A1, “SALTS OF OMECAMTIV MECARBIL AND SOLID FORMS THEREOF” (SYNTHON B.V., priority 2019, published 2022)
